Data reported in patent US20070196510A1, “Method for treating resistant hypertension” (priority 2006, published 2007).
Several values for one entry are separate records, joined by “and”; a condition that tells them apart may be missing. Equal entries are not always repeated. Entries after “also recorded” stand apart in the source; their conditions may differ.

Tests used:
[1] = tested on: patients with resistant hypertension; assay: Same clinical study: urinary albumin to creatinine ratio; assay type: in vivo, human
Procedure: (§1) Co-primary efficacy endpoints were the changes from baseline through weeks 8 and 10 (i.e., doses of 150 and 300 mg) in trough sitting SBP. Blood pressure was measured at every study visit (baseline and weeks 2, 4, 6, 8 and 10) using standard sphygmomanometry. Secondary variables included 24-hour SBP as measured by ambulatory blood pressure monitoring (ABPM), percentage of patients who achieved SBP goal, trough sitting DBP, and urinary albumin to creatinine ratio. Ambulatory blood pressure monitoring was recorded once before randomization and repeated during the 24 hours immediately preceding the week 10 study visit. Urine samples for determination of albumin to creatinine ratio were collected at screening, baseline and week 10.

[2] = tested on: patients with resistant hypertension; assay: Same clinical study: 24-hour ambulatory blood pressure monitoring (ABPM); assay type: in vivo, human
Procedure: as §1
(§2) A nonlinear mixed effect model was used for the analysis of change in blood pressure, with comorbidity status as a covariate. This model used all observed blood pressure measurements with no imputation for missing values. Linear contrast statements were used to test the slope through a given time point to test the effect of the dose administered on that week. Estimates of treatment effect were obtained via least square means. Response rates were compared with logistic regression models at each blood pressure measurement with comorbidity status as a covariate; missing values were imputed with last observation carried forward for these models. Safety summaries include all patients who received ≧1 dose of blinded study medication.
In this randomized, double-blind, multi-center study, subjects underwent a 2-week placebo run-in, followed by 2:1 randomization to darusentan or placebo once daily for 10 weeks. Subjects were initiated on 10 mg of study drug and underwent dose-escalation every 2 weeks through doses of 50, 100 and 150 mg until a maximum dose of 300 mg was achieved. Change from baseline to week 10 in 24-hour ambulatory blood pressure (ABP) was a secondary efficacy endpoint. All available ABP data were included in the analyses (observed population).

[3] = tested on: patients with resistant hypertension; assay: Same clinical study: safety and tolerability assessments; assay type: in vivo, human
Procedure: Physical examinations, vital sign measurements, clinical chemistry and hematologic laboratory tests, and electrocardiography were performed at the screening visit and periodically throughout the study. Blood samples were obtained at baseline and at weeks 4 and 10 during study drug treatment to monitor liver function. Additional blood samples were drawn from male patients at baseline and week 10 to assess follicle stimulating hormone, inhibin B, luteinizing hormone and testosterone levels. Male fertility was assessed by analysis of semen samples obtained within 2 weeks before baseline and within 2 weeks before week 10. Adverse events were monitored throughout the study.
as §2

[4] = tested on: patients with resistant hypertension; assay: Randomized, double-blind, placebo-controlled dose-titration study: sitting blood pressure by standard sphygmomanometry; assay type: in vivo, human; conditions: for patients achieving SBP goal, % / patients achieving SBP goal, responders n: n = 76; for placebo-corrected change from baseline in trough sitting SBP: post-hoc
Procedure: In this randomized, double-blind, placebo-controlled, dose-titration study, 115 patients with resistant hypertension as defined by JNC 7 guidelines were randomized 2:1 to receive escalating doses of darusentan (10, 50, 100, 150 and 300 mg) or placebo once daily for 10 weeks. Darusentan dose was increased every 2 weeks.
Patients (35 to 85 years of age) with resistant hypertension as defined by the JNC 7 guidelines and who were treated with and adhered to full doses of JNC 7 recommended antihypertensives, including a diuretic and two or more antihypertensive medications from different drug classes, defined as (a) ACE inhibitors and angiotensin II receptor blockers, (b) beta-adrenergic receptor blockers, and (c) calcium channel blockers, were eligible to participate in the study. Patients also were required to have an estimated glomerular filtration rate (GFR)≧30 mL/min/1.73 m^2 during the screening period. Women of childbearing potential were required to have a negative serum pregnancy test at the screening visit and a negative urine pregnancy test at baseline, and they must have agreed to use a reliable double-barrier method of contraception throughout the study and for at least 4 weeks after the last study visit. Patients with an average sitting SBP≧180 mmHg, DBP≧110 mmHg, hemoglobin A1c>10%, hemoglobin concentration<10 g/dL, hematocrit<30%, serum thyroid stimulating hormone concentration>1.5× the upper limit of normal (ULN), or serum alanine aminotransferase (ALT) or aspartate aminotransferase (AST)>2×ULN during the screening period were excluded from the study. […] All patients provided written informed consent.
In this randomized, double-blind, placebo-controlled, dose-titration study, patients were randomized 2:1 to receive escalating doses of darusentan or placebo once daily in the morning for 10 weeks after completing a 2-week placebo run-in period (FIG. 1). Darusentan was initiated at a dose of 10 mg/day and escalated every 2 weeks at doses of 50, 100 and 150 mg/day until reaching a maximum of 300 mg/day. […] Patients were withdrawn from the study if a subsequent dose reduction was required. After completion of the 10-week treatment period, patients were withdrawn from study medication over a maximum of 2 weeks. This study was approved by an Institutional Review Board/Independent Ethics Committee and conducted in accordance with the principles of Good Clinical Practices and the revised Declaration of Helsinki.
as §1
as §2, with “medication. […]” for “medication.”

[5] = tested on: patients with moderate hypertension; conditions: 10 to 100 mg/day, no other antihypertensive drugs; cited from earlier work

COc1cc(OC)nc(O[C@H](C(=O)O)C(OC)(c2ccccc2)c2ccccc2)n1 [Darusentan, (+)-(S)-2-[(4,6-dimethoxy-2-pyrimidinyl)oxy]-3-methoxy-3,3-diphenylpropionic acid]
geometric mean albumin to creatinine ratio at week 10 ([1]; all observed patients, n 65, baseline 12.6): 9.4 mg/g | decrease from baseline in geometric mean urinary albumin to creatinine ratio ([1]; all observed patients, placebo increased 6.2%): 25.3% | geometric mean albumin to creatinine ratio at week 10 ([1]; baseline ratio >30 mg/g, n 12, baseline 145.4): 73.6 mg/g | geometric mean albumin to creatinine ratio at week 10 ([1]; baseline ratio ≦30 mg/g, n 53, baseline 7.2): 5.9 mg/g | albumin to creatinine ratio, % change from baseline, mean (SE) ([1]; week 10, all observed patients, n 65): −25.3 (8.9) % | albumin to creatinine ratio, % change from baseline, mean (SE) ([1]; week 10, baseline ratio >30 mg/g, n 12): −49.4 (23.6) % | albumin to creatinine ratio, % change from baseline, mean (SE) ([1]; week 10, baseline ratio ≦30 mg/g, n 53): −18.4 (8.3) % | placebo-adjusted reduction in mean 24-hour diastolic ABP ([2]; 300 mg, week 10): 7.2±1.6 mmHg | placebo-adjusted 24-hour ambulatory DBP, change from baseline ([2]; ABPM at week 10): −7.2 mmHg and −7.2±1.6 mmHg | placebo-adjusted 24-hour ambulatory SBP, change from baseline ([2]; ABPM at week 10): −9.2 mmHg and −9.2±2.2 mmHg | blood pressure reduction over the 24-hour monitoring period ([2]; ABPM week 10, once daily dosing): maintained throughout the 24-hour monitoring period; also recorded: maintained over 24 hours; also recorded: remained consistently lower throughout the dosing interval | improvement in placebo-adjusted diurnal SBP ([2]; after 10 weeks, post-hoc analysis): 8.7 mmHg | placebo-adjusted change from baseline in mean ABPM-determined nocturnal DBP ([2]; week 10): −5.9 mm Hg | placebo-adjusted change from baseline in mean ABPM-determined nocturnal SBP ([2]; week 10): −9.9 mm Hg | decrease in day-time SBP ([2]; week 10, placebo 2.2±2.4): 10.9±1.4 mmHg | improvement in peak DBP as recorded by ABPM ([2]; week 10, placebo 2.3): 9.2 mmHg | decrease in night-time SBP ([2]; week 10, placebo 3.8±2.7): 11.9±1.6 mmHg | improvement in peak SBP as recorded by ABPM ([2]; week 10, placebo 6.0): 14.1 mmHg | Day/night SBP ratio ([2]; week 10, placebo 6.8%): 9.5% | overall tolerability ([3]; 10 to 300 mg once daily for 10 weeks, add-on therapy): generally safe and well tolerated | decreases in hematocrit reported as adverse events ([3]; all events mild): 2 patients | decreases in hemoglobin reported as adverse events ([3]; all events mild): 2 patients | mean concentrations of ALT, AST, and γ-glutamyltransferase ([3]; both groups): decreased slightly from baseline | number of serious adverse events reported ([3]; darusentan group, n = 76): Five | patients reporting serious adverse events ([3]; darusentan group, n = 76): 4 patients | patients who discontinued the study because of an adverse event ([3]; darusentan group, n = 76): 4 patients | cases of severe edema reported ([3]; human, in vivo): one | deaths during the course of the study ([3]; human, in vivo): No patients died | effects on heart rate or liver enzyme levels ([3]; human, in vivo): no clinically relevant effects | intensity of peripheral edema ([3]; human, in vivo): largely mild to moderate | patients able to successfully escalate study medication dose to 300 mg/day ([3]; human, in vivo): 78% | patients with elevations in ALT or AST >2×ULN ([3]; human, in vivo): no patients; also recorded: no drug-related serious adverse events or elevations in serum aminotransferase concentrations>2×ULN | relation of serious adverse events to study medication ([3]; human, in vivo): None of these events were considered to be related to study medication; also recorded: no drug-related serious adverse events | Treatment-emergent adverse event: Arthralgia, patients % ([3]; n = 76): 3% | Treatment-emergent adverse event: Arthralgia, patients n ([3]; n = 76): 2 | Treatment-emergent adverse event: Arthritis, patients n ([3]; n = 76): 0 | Treatment-emergent adverse event: Diarrhea, patients % ([3]; n = 76): 1 (1) % | Treatment-emergent adverse event: Diarrhea, patients n ([3]; n = 76): 1 (1) | Treatment-emergent adverse event: Dizziness, patients % ([3]; n = 76): 7% | Treatment-emergent adverse event: Dizziness, patients n ([3]; n = 76): 5 | Treatment-emergent adverse event: Gastroenteritis, patients % ([3]; n = 76): 5% | Treatment-emergent adverse event: Gastroenteritis, patients n ([3]; n = 76): 4 | Treatment-emergent adverse event: Headache, patients % ([3]; n = 76): 11% | Treatment-emergent adverse event: Headache, patients n ([3]; n = 76): 8 | Treatment-emergent adverse event: Nasopharyngitis, patients % ([3]; n = 76): 7% | Treatment-emergent adverse event: Nasopharyngitis, patients n ([3]; n = 76): 5 | Treatment-emergent adverse event: Peripheral edema, patients % ([3]; n = 76): 17% | Treatment-emergent adverse event: Peripheral edema, patients n ([3]; n = 76): 13 | Treatment-emergent adverse event: Sinusitis, patients % ([3]; n = 76): 8% | Treatment-emergent adverse event: Sinusitis, patients n ([3]; n = 76): 6 | Treatment-emergent adverse event: Upper respiratory tract infection, patients % ([3]; n = 76): 5% | Treatment-emergent adverse event: Upper respiratory tract infection, patients n ([3]; n = 76): 4 | liver function test results ([3]; vs placebo): comparable between treatment groups | heart rate, change from baseline ([3]; week 10, placebo 2.3±1.3): 0.4±0.9 beats per minute | sitting and standing blood pressure during withdrawal ([4]; 2-week withdrawal period after week 10, no significant difference vs placebo): increased | dose dependence of improvements in trough sitting SBP and DBP ([4]; 10 to 300 mg once daily, escalated every 2 weeks): dose dependent | reduction in peak sitting DBP ([4]; by week 10): 8.2 mmHg | reduction in peak sitting SBP ([4]; by week 10, placebo 9.9): 17.1 mmHg | average trough sitting DBP at end of treatment ([4]; study end (week 10), baseline 80.6): 73.9 mmHg | average trough sitting SBP at end of treatment ([4]; study end (week 10), baseline 146.3): 132.6 mmHg | patients achieving SBP goal, % ([4]; week 2 (10 mg)): 30.3% | patients achieving SBP goal, responders n ([4]; week 2 (10 mg)): 23 | placebo-adjusted mean trough sitting DBP, change from baseline ([4]; week 4 (50 mg dose)): −4.9 mmHg | patients achieving SBP goal, % ([4]; week 4 (50 mg)): 47.4% | patients achieving SBP goal, responders n ([4]; week 4 (50 mg)): 36 | patients achieving SBP goal, % ([4]; week 6 (100 mg)): 44.7% | patients achieving SBP goal, responders n ([4]; week 6 (100 mg)): 34 | change from baseline in mean trough sitting SBP, difference between groups ([4]; week 8 (150 mg dose), vs placebo): not statistically significant | patients achieving SBP goal, % ([4]; week 8 (150 mg)): 42.1% | patients achieving SBP goal, responders n ([4]; week 8 (150 mg)): 32 | placebo-adjusted mean trough sitting DBP, change from baseline ([4]; week 10 (300 mg dose), add-on therapy): −5.8 mmHg and −5.8±2.3 mmHg | placebo-adjusted mean trough sitting SBP, change from baseline ([4]; week 10 (300 mg dose), oral once daily, add-on to >=3 full-dose antihypertensives incl. diuretic): −11.6 mmHg and −11.6±3.3 mmHg | patients achieving SBP goal, % ([4]; week 10 (300 mg), JNC 7 goal): 49% and 48.7% | patients achieving SBP goal, responders n ([4]; week 10 (300 mg)): 37 | placebo-corrected change from baseline in trough sitting SBP ([4]; week 10 (300 mg), subjects on >=4 antihypertensive drugs): −12.71 mmHg | placebo-corrected change from baseline in trough sitting SBP ([4]; week 10 (300 mg), subjects on exactly 3 antihypertensive drugs): −9.39 mmHg | subjects with decrease in SBP of at least 20 mmHg ([4]; week 10, post-hoc, placebo 26%): about 46% | subjects with change from baseline of at least 10 mmHg for SBP ([4]; week 10, post-hoc, placebo 46%): approximately 64% | subjects achieving SBP goal or a decrease in SBP of at least 10 mmHg ([4]; week 10, post-hoc, placebo 49%): 71% | subjects achieving SBP goal or a decrease in SBP of at least 10 mmHg ([4]; week 10, subjects on >=4 antihypertensive drugs, placebo 38%): 66% | subjects achieving SBP goal or a decrease in SBP of at least 10 mmHg ([4]; week 10, subjects on exactly 3 antihypertensive drugs, placebo 57%): 76% | effect on SBP and DBP by comparison with placebo [5]: significantly reduce SBP and DBP
